# Laboratory results as given in ChEMBL document CHEMBL1201862, “PubChem BioAssay data set” (2004).
#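 48-hour exposure; five concentrations; linearly interpolated endpoints. GI50 = concentration required for 50% inhibition of growth.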 Calls of active or inactive are those of the source. Cut-off read from the data, not from the text of the source: active = GI50 up to about 1.1 µM and inactive = higher.
# Assays:
# Assay in all cases: DTP human tumour cell line panel, 48 h
# [1] = system: K562
# [2] = system: SN12C
# [3] = system: LOX IMVI
# [4] = system: T47D
# [5] = system: HOP-62
# [6] = system: SNB-75
# [7] = system: SK-OV-3
# [8] = system: MDA-MB-435
# [9] = system: A549
# [10] = system: KM-20L2
# [11] = system: HL-60
# [12] = system: SF-539
# [13] = system: NCI-H522
# [14] = system: SW-620
# [15] = system: NCI/ADR-RES
# [16] = system: A498
# [17] = system: U-251
# [18] = system: CCRF-CEM
# [19] = system: ACHN
# [20] = system: OVCAR-3
SMILES,GI50 [1],GI50 [2],GI50 [3],GI50 [4],GI50 [5],GI50 [6],GI50 [7],GI50 [8],GI50 [9],GI50 [10],GI50 [11],GI50 [12],GI50 [13],GI50 [14],GI50 [15],GI50 [16],GI50 [17],GI50 [18],GI50 [19],GI50 [20]
CC[C@@]1(O)C(=O)OCc2c1cc1n(c2=O)Cc2cc3cc4c(cc3nc2-1)OCO4,0.00304 µM (active),< 0.001 µM (active),0.00135 µM (active),0.0104 µM (active),< 0.001 µM (active),0.00148 µM (active),0.002 µM (active),0.0149 µM (active),0.00144 µM (active),0.0121 µM (active),0.00133 µM (active),< 0.001 µM (active),0.00133 µM (active),0.0032 µM (active),0.00175 µM (active),< 0.0143 µM (active),< 0.001 µM (active),< 0.001 µM (active),< 0.001 µM (active),0.0551 µM (active)
COc1cc2c(c(OC)c1OC)[C@@H]1CCCCC[C@@H]1CCC2=O,28.9 µM (inactive),> 100 µM (inactive),17.7 µM (inactive),–,> 100 µM (inactive),> 100 µM (inactive),> 100 µM (inactive),–,> 100 µM (inactive),> 90.8 µM (inactive),22.9 µM (inactive),> 100 µM (inactive),> 66.7 µM (inactive),> 100 µM (inactive),–,> 100 µM (inactive),> 92.5 µM (inactive),22.8 µM (inactive),> 100 µM (inactive),97.3 µM (inactive)
Nc1ccc(C(=O)NN2C(=O)C(Cl)C2c2cc(Br)ccc2O)cc1 (stereo unspecified),70.1 µM (inactive),> 100 µM (inactive),41.2 µM (inactive),–,> 100 µM (inactive),> 100 µM (inactive),> 100 µM (inactive),–,> 100 µM (inactive),> 100 µM (inactive),30.1 µM (inactive),> 100 µM (inactive),22.4 µM (inactive),> 100 µM (inactive),–,> 100 µM (inactive),32.6 µM (inactive),62.1 µM (inactive),> 100 µM (inactive),> 100 µM (inactive)
CCCC[C@H](CCc1ccccc1)N(C(=O)OC)N1CCC[C@H]1COC,21.7 µM (inactive),17.9 µM (inactive),18.3 µM (inactive),–,23 µM (inactive),35.1 µM (inactive),24.1 µM (inactive),–,24.8 µM (inactive),15.1 µM (inactive),46.7 µM (inactive),18 µM (inactive),14.1 µM (inactive),16.3 µM (inactive),–,18.1 µM (inactive),15.4 µM (inactive),15.5 µM (inactive),16.8 µM (inactive),18.3 µM (inactive)
